Marks after values point to notes of the source that are not given here.
Columns and labels:
soybean lipoxygenase = target: T1, soybean lipoxygenase (Glycine max, UniProt P08170); experiment: Inhibition of soybean lipoxygenase; type: biochemical
T1 construct: purchased Sigma
T1 sequence (P08170 1-839): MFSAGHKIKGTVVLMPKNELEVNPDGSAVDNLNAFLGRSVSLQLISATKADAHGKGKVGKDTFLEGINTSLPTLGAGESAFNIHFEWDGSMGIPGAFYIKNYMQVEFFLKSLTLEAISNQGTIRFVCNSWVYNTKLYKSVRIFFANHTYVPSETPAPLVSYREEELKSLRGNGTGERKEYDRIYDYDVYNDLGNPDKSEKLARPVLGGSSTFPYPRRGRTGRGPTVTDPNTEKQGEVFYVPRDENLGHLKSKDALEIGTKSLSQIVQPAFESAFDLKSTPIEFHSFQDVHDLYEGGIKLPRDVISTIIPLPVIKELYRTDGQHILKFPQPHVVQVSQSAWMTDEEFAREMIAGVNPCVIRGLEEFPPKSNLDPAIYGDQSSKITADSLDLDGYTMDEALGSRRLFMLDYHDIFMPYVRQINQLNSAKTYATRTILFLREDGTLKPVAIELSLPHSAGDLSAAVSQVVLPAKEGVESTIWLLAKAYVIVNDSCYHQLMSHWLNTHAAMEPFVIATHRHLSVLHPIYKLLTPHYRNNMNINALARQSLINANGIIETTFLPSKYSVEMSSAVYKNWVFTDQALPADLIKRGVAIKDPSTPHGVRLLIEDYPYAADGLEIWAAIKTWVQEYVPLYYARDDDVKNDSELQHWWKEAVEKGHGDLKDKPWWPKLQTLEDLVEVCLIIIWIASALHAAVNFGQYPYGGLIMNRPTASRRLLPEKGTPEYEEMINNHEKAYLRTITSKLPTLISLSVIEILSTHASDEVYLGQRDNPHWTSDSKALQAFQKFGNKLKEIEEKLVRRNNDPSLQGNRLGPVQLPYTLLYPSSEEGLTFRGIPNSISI
Protocol: The substituted pteridines prepared were assayed for inhibition of soybean lipoxygenase (Table 1) (Supplementary Information). Many studies have used readily obtainable soybean lipoxygenase, which is a homologue of mammalian lipoxygenase and well examined. The availability of soybean LOX and its well-characterized crystal structure led to its use in this study.
Determination of soybean lipoxygenase inhibition
A solution in DMSO of each compound to be tested was incubated at room temperature with sodium linoleate (0.1 mM) and a solution of soybean lipoxygenase (EC 1.13.11.12) (1:9 x 10^4 w/v in saline, 0.2 mL, Sigma). The conversion of sodium linoleate to 13-hydroperoxylinoleic acid was monitored by observation at 234 nm and compared with the value of appropriate standard inhibitor (Table 1).
(§1) IC50 determinations. OriginPro 8 was used to determine IC50 values from the sigmoidal line fitted to a graph of log[concentration] against the average percentage inhibition from two independent experiments, with at least 6 different concentrations. The SEM is the calculated standard error in the IC50 value of the fitted line.

rat model of colitis = experiment: Acetic acid-induced colitis in the rat; type: in vivo, Fisher 344 rats; conditions: 0.01 mmol/kg intrarectally, 4% acetic acid; for Change in body weight (%): assessed after 48 h; for Score (levels 0–5): colonic damage score, 48 h
Protocol: LOX has also been associated with inflammation and ulcerative colitis. In the present study, a model for colitis involving intracolonic administration of aqueous 4% acetic acid in the rat was used, leading to acute inflammatory reaction. Treated rats presented partial to diffuse petechial bleeding, single erosion and limited ulceration indicating an overall healing effect of the compounds. Substituted pteridines presenting a satisfactory combination of activities 5a, 18a, 18d and 18f were tested using this in vivo model characterized by diffuse exfoliated mucosa as well as multiple and extended erosion and ulcers of the colon (Table 3). No mortality was encountered.
(§2) Fisher 344 rats (150-200 g) were housed in wire-mesh cages, given standard laboratory chow and tap water ad libitum and acclimatized for one week before experiments. Rats were randomly assigned to experimental groups. All in vivo experiments conform to the law for the protection of experimental animals (Republic of Greece) and are registered at the Veterinary Administration of the Republic of Greece in accordance with recognized guidelines on animal experimentation including Directive 2010/63/EU.
Induction of colitis
Rats were anesthetized using pentobarbital (50 mg/kg ip) prior to administration with 1 mL of either vehicle (0.9% w/v saline) or the compound under study at doses 0.01mmol/kg intrarectally via a polyethylene cannula (fitted to a 1 mL syringe) with the tip inserted approximately 8 cm into the anus. Following 30 min pretreatment, 1 ml of 4% acetic acid was introduced into the colon intrarectally and, after exposure for 60 s, the excess fluid was withdrawn. The luminal content was then expelled by instillation of air (10 mL), the ligature was removed and the abdomen was sutured. Both groups of rats were allowed to recover with food and water and the resulting injury was assessed after 48 h. The experiment was conducted using two groups, each containing 3 animals.
Assessment of colonic damage. Rats were weighed, inspected for the presence of diarrhea and sacrificed using diethyl ether. The colons were excised and opened longitudinally, rinsed with cold saline, pinned out and observed under a dissecting microscope. Colonic damage was scored using the system of MacPherson and Pfeiffer: 0 – normal appearance, 1- hyperaemia, 2 – patchy petechial bleeding, 3 – diffuse petechial bleeding, 4 – partial exfoliated mucosa or single erosion or ulceration, 5 – diffuse exfoliated mucosa or multiple erosions or ulceration. The presence or absence of adhesions between the colon and the surrounding tissues was recorded. Scoring of the colonic damage (Table 4) was carried out by an observer unaware of the treatment.

[1] = Inhibition of linoleic acid peroxidation (AAPH); conditions: linoleic acid peroxidation initiated by AAPH, 37 °C, pH 7.4
Source text: Azo compounds that generate free radicals through spontaneous thermal decomposition are useful for in vitro studies of free radical production. The water-soluble AAPH has been extensively used as a clean and controllable source of thermally produced alkylperoxyl free radicals. […] Evidently, the presence of 6,7-dimethyl groups on the pteridine ring greatly enhances protection against lipid peroxidation; the nature of the alkyl group and ring size on the 2-substituent has some, but much less, effect. […] The role of lipophilicity (as assessed from calculated clogP values; Table 1) is not clear, but substituent bulk plays a significant role.
Inhibition of linoleic acid peroxidation
Production of conjugated diene hydroperoxide by oxidation of linoleic acid in an aqueous dispersion was monitored at 234 nm. 2,2’-Azobis(2-amidinopropane) dihydrochloride (AAPH) was used as a free radical initiator. This assay was used to follow oxidative changes and to determine the inhibition of the peroxidation of sodium linoleate by each tested compound. A dispersion of sodium linoleate (16 mM, 10 μL) was added to the UV cuvette containing phosphate buffer (0.05 M, 0.93 mL) at pH 7.4 and kept in a thermostat at 37 °C. The oxidation reaction was initiated at 37 °C under air by the addition of AAPH solution (40 mM, 50 μL). Oxidation was carried out in the presence of aliquots (10 μL) of the tested compound. In the assay without antioxidant, lipid oxidation was measured in the presence of DMSO (10 μL). The rate of oxidation at 37 °C was monitored by recording the increase in absorption at 234 nm caused by conjugated diene hydroperoxide formation (Table 2).
as §1

[2] = Reducing ability in DPPH assay; conditions: compound 100 μM
Protocol: Previous work has shown that pterins, their dihydro- and their tetrahydro-derivatives can each be antioxidants or pro-oxidants, depending on the particular conditions. In the present study, several assays were used to assess in vitro antioxidant activity in order to obtain representative information; each method involves the generation of a different radical.
Determination of reducing activity using 1,1-diphenyl-2-picrylhydrazyl radical (DPPH)
To a solution of DPPH in absolute ethanol was added an equal volume of the compound to be tested dissolved in DMSO (20 µL). From a stock solution (10 mM) was prepared a final solution of 100 µM for evaluation of the compounds. The absorbance at 517 nm was recorded after 20 and 60 min at room temperature (Table 2).

[3] = Competition with DMSO for hydroxyl radicals; conditions: compound at 100 µM, Fe3+/ascorbic acid, DMSO 33 mM
Protocol: Competition of the novel pteridine derivatives with dimethyl sulfoxide for hydroxyl radicals was measured. […] The majority of the derivatives were excellent scavengers of hydroxyl radicals with activity higher than the reference compound 6-hydroxy-2,5,7,8-tetramethylchroman-2-carboxylic acid (Trolox).
Competition of pteridine derivatives with DMSO for hydroxyl radicals
Hydroxyl radicals generated by the Fe^3+/ascorbic acid system were detected by determination of formaldehyde produced from the oxidation of DMSO, according to the procedure of Nash. The reaction mixture comprised ethylenediaminetetracetic acid (EDTA) (0.1 mM), Fe^3+ (167 μM), DMSO (33 mM) in phosphate buffer (50 mM, pH 7.4), ascorbic acid (10 mM) and the compound to be tested at 100 µM. After incubation at 37 °C for 30 min the mixture was quenched with aqueous trichloroacetic acid (17% w/v) (Table 2) and the percentage competition of the tested compounds with DMSO for hydroxyl radicals was determined (Table 2).

[4] = system: carrageenin-induced rat paw edema; experiment: Inhibition of carrageenin-induced rat paw edema; type: in vivo, Fisher 344 rats; conditions: rat, 0.01 mmol/kg intraperitoneally, 1 h, mean of two experiments
Protocol: The incipient pattern of this edema is characterized by the effects of histamine and 5-hydroxytryptamine. After 1 h, reduction of edema in the rat paw achieved by the pteridine 18f was appreciably greater than the reduction induced by the reference compound indomethacin, a nonselective COX-inhibitor and commonly used nonsteroidal anti-inflammatory drug. Thus, 18f and some related pteridines offer significant protection against reactive oxygen species produced in a model of colitis, probably on account of their properties as antioxidants and radical scavengers.
as §2
Inhibition of carrageenin-induced edema
Edema was induced in the right hind paw of Fisher 344 rats (150-200 g) by intradermal injection of aqueous carrageenin (0.1 mL, 2%). Pregnant females were excluded from the study, but both sexes were used. Each group comprised 6-15 rats which were bred and housed under standard conditions and received a diet of commercial food pellets and water ad libitum during maintenance but were entirely fasted during the experiment period. Each compound (0.01 mmol/kg body weight) was suspended in water to which had been added a few drops of Tween 80 and then the mixture was ground in a mortar prior to being administered intraperitoneally and simultaneously with the carrageenin injection. Rats were euthanized 1 h after injection, and the difference between the weight of the injected and non-injected paws was calculated for each animal. The change in paw weight was compared with that in control animals (treated with water) and the inhibition of the edema was expressed as a percentage (Table 4). […]

Row | Structure (SMILES) | inhibition at 100 µM (soybean lipoxygenase; compound at 100 µM, read-out: Lipoxygenase inhibitory activity (% at 100 µM)) | Change in body weight (%) (rat model of colitis) | Score (levels 0–5) (rat model of colitis) | IC50 [1] | RA (%) 100μM 20 min [2] | RA (%) 100μM 60 min [2] | Hydroxyl radicals scavenged (%) [3] | IC50 (soybean lipoxygenase; sodium linoleate 0.1 mM, read-out: Lipoxygenase inhibitory activity (IC50)) | Reduction of rat paw edema after 1 h (%) [4]
1 | CN1CCN(c2nc(NCc3ccccc3)c3nccnc3n2)CC1 [Compound 18a] | 31.5 ± 0.2% | -4.2% | One rat exhibited hyperemia (1); the rest presented petechial bleeding (patchy to diffuse) (2–3) | 22 ± 0.8 µM | 2% | 7% | 91% | – | –
2 | CN1CCN(c2nc(NCc3cccnc3)c3nccnc3n2)CC1 [Compound 18d] | – | -7% | One rat exhibited patchy petechial bleeding (2), and another diffuse petechial bleeding (3); the rest presented partial exfoliated mucosa or single erosion or ulcer | 32.5 ± 1 µM | 10% | 11% | 95% | 0.1 ± 0.01 µM | –
3 | COc1ccc2c(c1)c(CC(=O)O)c(C)n2C(=O)c1ccc(Cl)cc1 [Indomethacin, indomethacin, reference compound] | – | – | – | – | – | – | – | – | 25 ^† %

From article PMC5462101 (Future medicinal chemistry, 2015)
